Data published in article PMC6979384, “Characterization of the plant homeodomain (PHD) reader family for their histone tail interactions” (Epigenetics & Chromatin, 2020).

What was measured:
Test in all cases: Histone peptide microarray
Assay type in all cases: binding, human
Conditions in all cases: each array performed twice, total n = 4
ING3 = test system: ING3
Method in brief: (§1)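 Histone peptide library (293 synthetic peptides, single/combinatorial PTMs) arrayed and probed with 0.5 μM purified GST-PHD domain; optimized protocol; quadruplicate mean and SD reported.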

CHD4 (PPCC) = test system: CHD4 (PPCC)
Method in brief: as §1

PHF2 = test system: PHF2
Method in brief: as §1

DIDO1 = test system: DIDO1
Method in brief: as §1

SP140L = test system: SP140L
Method in brief: as §1

ING2 = test system: ING2
Method in brief: as §1

PHF21A = test system: PHF21A
Method in brief: as §1

DPF2 (PPC2W2) = test system: DPF2 (PPC2W2)
Method in brief: as §1

BAZ2B = test system: BAZ2B
Method in brief: as §1

KDM5A (1) = test system: KDM5A (1)
Method in brief: as §1

KDM5A (3) = test system: KDM5A (3)
Method in brief: as §1

KDM4C (TTP) = test system: KDM4C (TTP)
Method in brief: as §1

KDM7A = test system: KDM7A
Method in brief: as §1

AIRE (PP) = test system: AIRE (PP)
Method in brief: as §1

PHF13 = test system: PHF13
Method in brief: as §1

TAF3 = test system: TAF3
Method in brief: as §1

BPTF (PB) = test system: BPTF (PB)
Method in brief: as §1

CHD5 (PCC) = test system: CHD5 (PCC)
Method in brief: as §1

TRIM66 (PB) = test system: TRIM66 (PB)
Method in brief: as §1

ING4 = test system: ING4
Method in brief: as §1

PHRF1 (RP) = test system: PHRF1 (RP)
Method in brief: as §1

RAG2 = test system: RAG2
Method in brief: as §1

KDM5B (1) = test system: KDM5B (1)
Method in brief: as §1

MLL5 = test system: MLL5
Method in brief: as §1

ING5 = test system: ING5
Method in brief: as §1

ING1 = test system: ING1
Method in brief: as §1

MORC3 (CW) = test system: MORC3 (CW)
Method in brief: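 Steps: express and purify GST-tagged PHD reader; incubate 0.5 μM protein on a peptide microarray (293 histone peptides, single or combined PTMs) following an optimized protocol; average signal across 4 replicates.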

PHF8 = test system: PHF8
Method in brief: as §1

PHF23 = test system: PHF23
Method in brief: as §1

CHD5 (PPCC) = test system: CHD5 (PPCC)
Method in brief: as §1

KDM5B (3) = test system: KDM5B (3)
Method in brief: as §1

H4K5ac + K8ac + K12me1 + K16ac: H4 1-23
Array Heatmap value (peptide array signal) (ING3; ING3, sheet "Array Heatmap"): 0.5746
Array Heatmap value (peptide array signal) (CHD4 (PPCC); CHD4 (PPCC), sheet "Array Heatmap"): 0.628
Array Heatmap value (peptide array signal) (PHF2; PHF2, sheet "Array Heatmap"): 0.5943
Array Heatmap value (peptide array signal) (DIDO1; DIDO1, sheet "Array Heatmap"): 0.7398
Array Heatmap value (peptide array signal) (SP140L; SP140L, sheet "Array Heatmap"): 0.4016
Array Heatmap value (peptide array signal) (ING2; ING2, sheet "Array Heatmap"): 0.6062
Array Heatmap value (peptide array signal) (PHF21A; PHF21A, sheet "Array Heatmap"): 0.5148
Array Heatmap value (peptide array signal) (DPF2 (PPC2W2); DPF2 (PPC2W2), sheet "Array Heatmap"): 0.7404
Array Heatmap value (peptide array signal) (BAZ2B; BAZ2B, sheet "Array Heatmap"): 0.5334
Array Heatmap value (peptide array signal) (KDM5A (1); KDM5A (1), sheet "Array Heatmap"): 0.525
Array Heatmap value (peptide array signal) (KDM5A (3); KDM5A (3), sheet "Array Heatmap"): 0.4814
Array Heatmap value (peptide array signal) (KDM4C (TTP); KDM4C (TTP), sheet "Array Heatmap"): 0.5546
Array Heatmap value (peptide array signal) (KDM7A; KDM7A, sheet "Array Heatmap"): 0.3906
Array Heatmap value (peptide array signal) (AIRE (PP); AIRE (PP), sheet "Array Heatmap"): 0.4852
Array Heatmap value (peptide array signal) (PHF13; PHF13, sheet "Array Heatmap"): 0.7176
Array Heatmap value (peptide array signal) (TAF3; TAF3, sheet "Array Heatmap"): 0.2985
Array Heatmap value (peptide array signal) (BPTF (PB); BPTF (PB), sheet "Array Heatmap"): 0.4205
Array Heatmap value (peptide array signal) (CHD5 (PCC); CHD5 (PCC), sheet "Array Heatmap"): 0.8246
Array Heatmap value (peptide array signal) (TRIM66 (PB); TRIM66 (PB), sheet "Array Heatmap"): 0.6523
Array Heatmap value (peptide array signal) (ING4; ING4, sheet "Array Heatmap"): 0.538
Array Heatmap value (peptide array signal) (PHRF1 (RP); PHRF1 (RP), sheet "Array Heatmap"): 0.5035
Array Heatmap value (peptide array signal) (RAG2; RAG2, sheet "Array Heatmap"): 0.2841
Array Heatmap value (peptide array signal) (KDM5B (1); KDM5B (1), sheet "Array Heatmap"): 0.6517
Array Heatmap value (peptide array signal) (MLL5; MLL5, sheet "Array Heatmap"): 0.5904
Array Heatmap value (peptide array signal) (ING5; ING5, sheet "Array Heatmap"): 0.4233
Array Heatmap value (peptide array signal) (ING1; ING1, sheet "Array Heatmap"): 0.5999
Array Heatmap value (peptide array signal) (MORC3 (CW); MORC3 (CW), sheet "Array Heatmap"): 0.4079
Array Heatmap value (peptide array signal) (PHF8; PHF8, sheet "Array Heatmap"): 0.3954
Array Heatmap value (peptide array signal) (PHF23; PHF23, sheet "Array Heatmap"): 0.5681
Array Heatmap value (peptide array signal) (CHD5 (PPCC); CHD5 (PPCC), sheet "Array Heatmap"): 0.6457
Array Heatmap value (peptide array signal) (KDM5B (3); KDM5B (3), sheet "Array Heatmap"): 0.5615

H3R2me2a + K4me3 + S10p: H3 1-20
Array Heatmap signal (histone peptide microarray) (ING3; GST-tagged ING3, sheet Array Heatmap): 0.4991
Array Heatmap signal (histone peptide microarray) (CHD4 (PPCC); GST-tagged CHD4 (PPCC = Dual PHD + Dual Chromodomain), sheet Array Heatmap): 0.5987
Array Heatmap signal (histone peptide microarray) (PHF2; GST-tagged PHF2, sheet Array Heatmap): 0.8067
Array Heatmap signal (histone peptide microarray) (DIDO1; GST-tagged DIDO1, sheet Array Heatmap): 0.8994
Array Heatmap signal (histone peptide microarray) (SP140L; GST-tagged SP140L, sheet Array Heatmap): 0.356
Array Heatmap signal (histone peptide microarray) (ING2; GST-tagged ING2, sheet Array Heatmap): 0.6788
Array Heatmap signal (histone peptide microarray) (PHF21A; GST-tagged PHF21A, sheet Array Heatmap): 0.4392
Array Heatmap signal (histone peptide microarray) (DPF2 (PPC2W2); GST-tagged DPF2 (PPC2W2 = Dual PHD + C2W2-type Zn-finger), sheet Array Heatmap): 0.7179
Array Heatmap signal (histone peptide microarray) (BAZ2B; GST-tagged BAZ2B, sheet Array Heatmap): 0.4437
Array Heatmap signal (histone peptide microarray) (KDM5A (1); GST-tagged KDM5A (1), sheet Array Heatmap): 0.4568
Array Heatmap signal (histone peptide microarray) (KDM5A (3); GST-tagged KDM5A (3), sheet Array Heatmap): 0.7062
Array Heatmap signal (histone peptide microarray) (KDM4C (TTP); GST-tagged KDM4C (TTP = Tandem Tudor domain + PHD), sheet Array Heatmap): 0.4873
Array Heatmap signal (histone peptide microarray) (KDM7A; GST-tagged KDM7A, sheet Array Heatmap): 0.3687
Array Heatmap signal (histone peptide microarray) (AIRE (PP); GST-tagged AIRE (PP), sheet Array Heatmap): 0.4162
Array Heatmap signal (histone peptide microarray) (PHF13; GST-tagged PHF13, sheet Array Heatmap): 0.6271
Array Heatmap signal (histone peptide microarray) (TAF3; GST-tagged TAF3, sheet Array Heatmap): 0.3453
Array Heatmap signal (histone peptide microarray) (BPTF (PB); GST-tagged BPTF (PB = PHD + Bromodomain), sheet Array Heatmap): 0.396
Array Heatmap signal (histone peptide microarray) (CHD5 (PCC); GST-tagged CHD5 (PCC = PHD + Dual Chromodomain), sheet Array Heatmap): 0.741
Array Heatmap signal (histone peptide microarray) (TRIM66 (PB); GST-tagged TRIM66 (PB = PHD + Bromodomain), sheet Array Heatmap): 0.5905
Array Heatmap signal (histone peptide microarray) (ING4; GST-tagged ING4, sheet Array Heatmap): 0.4698
Array Heatmap signal (histone peptide microarray) (PHRF1 (RP); GST-tagged PHRF1 (RP), sheet Array Heatmap): 0.4776
Array Heatmap signal (histone peptide microarray) (RAG2; GST-tagged RAG2, sheet Array Heatmap): 0.4658
Array Heatmap signal (histone peptide microarray) (KDM5B (1); GST-tagged KDM5B (1), sheet Array Heatmap): 0.6814
Array Heatmap signal (histone peptide microarray) (MLL5; GST-tagged MLL5, sheet Array Heatmap): 0.6475
Array Heatmap signal (histone peptide microarray) (ING5; GST-tagged ING5, sheet Array Heatmap): 0.3497
Array Heatmap signal (histone peptide microarray) (ING1; GST-tagged ING1, sheet Array Heatmap): 0.6296
Array Heatmap signal (histone peptide microarray) (MORC3 (CW); GST-tagged MORC3 (CW = CW-type Zn-finger), sheet Array Heatmap): 0.6914
Array Heatmap signal (histone peptide microarray) (PHF8; GST-tagged PHF8, sheet Array Heatmap): 0.5293
Array Heatmap signal (histone peptide microarray) (PHF23; GST-tagged PHF23, sheet Array Heatmap): 0.5952
Array Heatmap signal (histone peptide microarray) (CHD5 (PPCC); GST-tagged CHD5 (PPCC = Dual PHD + Dual Chromodomain), sheet Array Heatmap): 0.5451
Array Heatmap signal (histone peptide microarray) (KDM5B (3); GST-tagged KDM5B (3), sheet Array Heatmap): 0.5192
